# Laboratory results reported in PMC11818871, “Identification of Fungal Metabolite Gliotoxin as a Potent Inhibitor Against Bacterial O-Acetylserine Sulfhydrylase CysK and CysM” (International Journal of Molecular Sciences, 2025).
# Columns and labels:
# [1] = target: CysM (O-acetylserine sulfhydrylase) (Salmonella enterica, UniProt P29848); assay: recombinant enzyme, H2S consumption by HSip-1 fluorescence; confirmed by LC-MS/MS of cysteine production; assay type: biochemical
# [2] = target: CysK (O-acetylserine sulfhydrylase) (Salmonella enterica, UniProt P0A1E3); assay: as above; assay type: biochemical
# CysK (O-acetylserine sulfhydrylase), sequence (P0A1E3 2-323): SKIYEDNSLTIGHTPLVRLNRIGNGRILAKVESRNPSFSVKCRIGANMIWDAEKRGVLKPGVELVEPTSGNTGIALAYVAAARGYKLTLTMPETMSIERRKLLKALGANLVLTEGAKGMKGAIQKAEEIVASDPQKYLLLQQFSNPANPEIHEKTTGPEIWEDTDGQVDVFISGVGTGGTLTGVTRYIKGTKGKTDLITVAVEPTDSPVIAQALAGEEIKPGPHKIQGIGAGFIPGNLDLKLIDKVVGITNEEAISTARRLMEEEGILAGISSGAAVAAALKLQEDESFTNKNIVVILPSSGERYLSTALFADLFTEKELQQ
# CysM (O-acetylserine sulfhydrylase), sequence (P29848 whole entry): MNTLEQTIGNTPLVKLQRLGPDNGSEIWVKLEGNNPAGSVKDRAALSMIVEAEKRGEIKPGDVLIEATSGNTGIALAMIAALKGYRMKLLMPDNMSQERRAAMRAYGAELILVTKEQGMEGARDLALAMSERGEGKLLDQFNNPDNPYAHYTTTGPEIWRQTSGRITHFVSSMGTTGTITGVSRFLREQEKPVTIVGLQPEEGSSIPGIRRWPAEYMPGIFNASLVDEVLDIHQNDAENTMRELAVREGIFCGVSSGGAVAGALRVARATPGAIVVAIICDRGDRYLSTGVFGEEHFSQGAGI
structure (smiles),measurement,setting,value
"CN1C(=O)[C@]23CC4=CC=C[C@H](O)[C@H]4N2C(=O)[C@@]1(CO)SS3 [compound 1, gliotoxin]",IC50,[1],~3 µM
same,IC50,[2],~3 µM
